In PubChem BioAssay AID179 (DTP/NCI, 2004):
Activity calls are given as the source filed them.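 How the source made its calls: active means compounds giving half or more protection of infected cells from virus-caused growth loss, again on retest; inactive means the rest.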

Test system: CEM cells HIV-1 protection, formazan growth assay
Assay: NCI AIDS Antiviral Assay
Conditions: for IC50: measured here: growth of uninfected CEM cells
How it was run: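 Protection of CEM cells against HIV-1 was scored from cell growth (soluble formazan) across five concentrations, with parallel uninfected cells. Lack of protection may reflect toxicity.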

| Structure (SMILES) | EC50 [µM] | IC50 [µM] | outcome |
| --- | --- | --- | --- |
| Nc1c(S(=O)(=O)O)cc2cc(S(=O)(=O)O)ccc2c1N=Nc1ccc(CCc2ccc(N=Nc3c(N)c(S(=O)(=O)O)cc4cc(S(=O)(=O)O)ccc34)cc2S(=O)(=O)O)c(S(=O)(=O)O)c1 | 7.59 | 60.3 |  |
| COc1ccc(-n2c(N)c(C#N)c(C#N)c2-c2ccco2)cc1 | > 200 | > 200 |  |
| O=C(OCc1ccccc1)N1c2cc([N+](=O)[O-])ccc2C(=O)N2CCC[C@H]2C1O (stereo not given in full) | > 200 | 138 |  |
| CCOC(=O)C1(C#N)C(c2ccccc2)CC(O)(c2ccc(OC)cc2)C(C(=O)c2ccc(OC)cc2)C1c1ccccc1 (stereo not given) | > 12.3 | > 12.3 |  |
| CCNc1nc2c(ncn2C2CC(O)C(COP(=O)(O)O)O2)c(=O)[nH]1 (stereo not given) | > 100 | > 100 |  |
| O=C(NCCCCCN1CCC2(CCCCC2)CC1)C(c1ccccc1)C1CCCCC1 (stereo not given) | > 200 | 5.75 |  |
| COc1cccc(NC(=O)CC(=O)N2N=C(C)C(N=Nc3ccc(S(=O)(=O)CCOS(=O)(=O)O)cc3)C2=O)c1 (stereo not given) | > 200 | 3.02 |  |
| NCCN.O=C([O-])CC(O)C(=O)[O-].[Pt+4] (stereo not given) | > 200 | 12 |  |
| N#Cc1ccc(NC(=NCC(=O)O)Nc2ccc3ccccc3c2)cc1 |  |  | inactive |
| CC1CCC(O)/C=C/C(=O)OC(C)C(O)/C=C/C(=O)O1 (stereo not given) | > 200 | 10 |  |
| COC(=O)c1c(C)c2c(c(C)c1C(=O)OC)-c1c(C)ccc3ccc(C)c-2c13 | > 100 | 3.72 |  |
| Nc1cn(Cc2ccccc2)c2nc(/C=C3/C=CC=CC3=O)c(O)n12 | > 200 | > 200 |  |
| CCCCCCCCCCCCCCCCNC(=O)/C(=C\c1ccccc1O)NC(=O)c1ccccc1 | > 200 | > 200 |  |
| c1ccc(Oc2cccc(Oc3ccc4c(c3)-c3nc-4nc4[nH]c(nc5nc(nc6[nH]c(n3)c3ccc(Oc7cccc(Oc8ccccc8)c7)cc63)-c3cc(Oc6cccc(Oc7ccccc7)c6)ccc3-5)c3ccc(Oc5cccc(Oc6ccccc6)c5)cc43)c2)cc1 | > 3.02 | > 3.02 |  |
| N=c1oc2ccc(Cl)cc2cc1C(=O)Nc1ccccc1 | > 151 | 21.9 |  |
| O=C(C1OC1c1ccc(Cl)cc1)C12CC3CC(CC(C3)C1)C2 (stereo not given) | > 200 | 18.2 |  |
| CC1=C2CCCC2C/C(=N/Nc2ccc([N+](=O)[O-])cc2[N+](=O)[O-])CC1 (stereo not given) |  |  | inactive |
| OC1(CN2CCCCC2)N=C(c2ccccc2)c2ccsc2-n2cccc21 (stereo not given) | > 200 | 117 |  |
| CCc1cccc(C)c1NC(=O)CCc1nc(=S)[nH][nH]1 | > 617 | > 617 |  |
| Cc1cc(C)nc(NS(=O)(=O)c2ccc(NC(=O)c3cccc4c(Nc5ccc(S(=O)(=O)Nc6nc(C)cc(C)n6)cc5)c5ccccc5nc34)cc2)n1 | > 33.9 | 30.2 |  |
| O=S(=O)(Cc1nc2ccccc2s1)c1nc2ccccc2s1 | > 200 | 4.79 |  |

| Structure (SMILES) | EC50 [µM] | IC50 [µM] | outcome |
| --- | --- | --- | --- |
| S=C1NC(c2ccccc2)=NC(Cc2ccccc2)(c2ccccc2)N1c1ccccc1 (stereo not given) |  |  | inactive |
| CC(=O)N(C(C)=O)c1c(C)cc(-c2cccs2)oc1=O | > 200 | > 100 |  |
| CCN(c1ccccc1)c1nc(N)nc(NS(=O)(=O)c2cc(C)c(Cl)cc2S)n1 | 70.8 | > 200 |  |
| COc1c2c(cc3c1C1(O)Cc4ccc5c(c4C[N+]1(C)CC3)OCO5)OCO2 (stereo not given) | > 61.7 | > 61.7 |  |
| CC(SC(=S)Nc1cccc(F)c1)C(=O)O (stereo not given) |  |  | inactive |
| NC(=O)C12C3C4C1C1C2C3C41C(N)=O (stereo not given) | > 70.8 | > 70.8 |  |
| CC(C)N1CNC(=O)C12CCN(CC1COc3ccccc3O1)CC2 (stereo not given) | > 200 | > 200 |  |
| Cc1nc(C(N)=S)sc1C(=O)/C=C/c1cccc(O)c1 | > 85.1 | > 85.1 |  |
| CCOC(=O)C(Sc1ccccc1)c1c(OC)cc(=O)oc1/C=[N+](/[O-])c1ccc(N(C)C)cc1 (stereo not given) |  |  | inactive |
| CC(C)(C)C(=O)/C=C(\OB(F)F)C(C)(C)C | > 200 | > 200 |  |
| Cn1c(=N)c2cnn(-c3ccccc3)c2n(C)c1=O | > 490 | > 490 |  |
| COc1cc(CC(=O)O)c(C(=O)c2ccc([N+](=O)[O-])cc2)cc1OC | > 200 | > 200 |  |
| COC(=O)/C=C1\C=CC=CC12C(C(=O)OC)c1ccccc1C(C(=O)OC)C2C(=O)OC (stereo not given) | > 200 | > 200 |  |
| CC[N+](C)(CC)Cc1ccccc1[N+](=O)[O-] | > 200 | 126 |  |
| CCOC(=O)/C(=C\c1ccc([N+](=O)[O-])cc1)C(C)=O | > 257 | 64.6 |  |
| O=C(Nn1c(-c2ccccc2)nc2ccccc2c1=O)c1ccccn1 | > 200 | 123 |  |
| O=C1NC2(CCCCC2)C(OCCO)C12CCCCC2 (stereo not given) | > 316 | > 316 |  |
| CC(/C=C/NNC1=NC(c2ccccc2)C(c2ccccc2)=NN1)Sc1ccccc1N (stereo not given) | > 81.3 | 1.45 |  |
| CN1C(=O)CCC1(O)C1C=CC=CC1 (stereo not given) | > 1290 | > 1290 |  |
| Cc1cc(Br)cc(C)c1NC(=O)C(=O)Nn1c(=S)[nH]c2ccccc2c1=O | > 209 | > 209 |  |
| COc1cc(C2C3=C(COC3=O)OC(C)(C)Oc3cc4c(cc32)OCO4)cc(OC)c1O (stereo not given) | > 2 | 0.575 |  |

| Structure (SMILES) | EC50 [µM] | IC50 [µM] | outcome |
| --- | --- | --- | --- |
| Cc1ccc(C)n1-c1ccccc1C1C=CN(C(=O)OC(C)(C)C)C=C1 | > 200 | 30.2 |  |
| O=S(O)CCCCCSSCCCCSSCCCCCS(=O)O |  |  | inactive |
| O=C(/C=C\c1ccc(Cl)c(Cl)c1)c1cccs1 | > 200 | 10.2 |  |
| CC(C)(C)C(=O)/C=C/c1cccc(Oc2ccccc2)c1 | > 18.6 | > 18.6 |  |
| C/C(O)=C(\N=O)C(=O)NCc1ccccc1 | > 1120 | > 1120 |  |
| NC1(N2SC(S)=C3CCCC=C32)CCCCC1 | 42.7 | > 200 |  |
| O=C1[C@@H]2[C@@H](CN3CN(c4ccccc4)N=C(c4ccccc4)[C@@]23c2ccccc2)C(=O)N1c1ccccc1 | > 20 | 2.95 |  |
| CN(C)c1ccc(/C=C(\NC(=O)c2ccccc2)C(=O)NC(CCC(=O)O)C(=O)O)cc1 (stereo not given) | > 50.1 | 34.7 |  |
| O=C1C2c3[nH]c4ccccc4c3C3CCCCC3C2C(=O)N1c1ccccc1 (stereo not given) |  |  | inactive |
| O=C(O)Cc1ccc(-n2nnc3c(=O)[nH][nH]c(=O)c32)cc1 | > 200 | > 200 |  |
| Cn1c2ccccc2c(=S)c2c(O)cc3c(c21)C=CC(C)(C)O3 | > 200 | > 200 |  |
| O=C(CCCn1ccnc1[N+](=O)[O-])NCCn1ccnc1[N+](=O)[O-] | > 200 | > 200 |  |
| CCCCSCCC(N)P(=O)(O)O (stereo not given) | > 200 | > 200 |  |
| CN(CCO)CCCC1COc2ccccc2O1 (stereo not given) | > 200 | > 200 |  |
| c1ccc(C(NC2=NCCO2)c2ccccc2)cc1 |  |  | inactive |
| CC(=O)C1C(=O)C(=O)N(c2ccc(Br)cc2)C1=O (stereo not given) |  |  | inactive |
| O=P1(Nc2ccccc2)OCCCN1Cc1ccc(Cl)c(Cl)c1 (stereo not given) | > 200 | 53.7 |  |
| O=C(CCc1ccc(O)cc1)NCCc1ccc(O)cc1 | 38.9 | 166 |  |
| COc1ccc(N(C)S(=O)(=O)c2ccccc2)cc1 | > 200 | 123 |  |
| N/N=C(/C(=O)Nc1cccc(Cl)c1)C(C(=O)c1ccc(O)cc1O)C1OC(=O)c2ccccc21 (stereo not given) | > 525 | 87.1 |  |
